Experimental data published in patent US20040014676A1, “SRC kinase inhibitors useful for treating osteoporosis” (priority 2001, published 2004).

Target: T1, Src kinase (Homo sapiens, UniProt P12931)
T1 construct: purchased Upstate Bioteolnology (sic; Upstate Biotechnology); later HMR stock 27597-019E1 #14-117
Experiment: Phosphorylation assay of Src kinase inhibitors (radiometric, 96 well filter plate)
Format: biochemical
Details: duplicates, tested in the range of 400-0.098 µM; 10 µM peptide substrate (FIYGAFKKKKNH2), 5 µM unlabeled ATP, room temperature 30 min; read-out: IC50
Method in brief: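 Radiometric filter-plate assay: Src kinase (1:100 dilution) was incubated with 10 μM peptide FIYGAFKKK-NH2, 5 μM unlabeled ATP and radiolabeled ATP for 30 min at room temperature. Reactions were stopped with 150 mM H3PO4, the peptide was captured on phosphocellulose and scintillation counted. Ki values were determined for some compounds.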

T1 sequence (P12931 whole entry): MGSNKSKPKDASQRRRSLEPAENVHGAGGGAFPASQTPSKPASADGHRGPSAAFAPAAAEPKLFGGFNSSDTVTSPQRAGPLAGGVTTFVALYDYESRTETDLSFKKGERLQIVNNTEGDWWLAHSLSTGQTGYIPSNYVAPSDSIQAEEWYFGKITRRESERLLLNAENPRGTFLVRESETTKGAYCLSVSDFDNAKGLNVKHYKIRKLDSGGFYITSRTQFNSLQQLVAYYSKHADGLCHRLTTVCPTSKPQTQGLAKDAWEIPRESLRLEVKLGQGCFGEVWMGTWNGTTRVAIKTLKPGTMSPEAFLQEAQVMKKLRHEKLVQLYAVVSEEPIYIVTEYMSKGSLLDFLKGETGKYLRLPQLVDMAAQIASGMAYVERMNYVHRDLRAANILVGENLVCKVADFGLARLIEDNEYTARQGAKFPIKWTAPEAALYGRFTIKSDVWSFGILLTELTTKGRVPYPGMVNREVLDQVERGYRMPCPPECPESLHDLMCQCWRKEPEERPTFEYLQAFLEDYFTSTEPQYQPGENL

Q: Which IC50 does the source give for `C[C@@H](c1ccc(O)cc1)[C@H](N)C(=O)NCCCCOc1cc2ccccc2cc1C(=O)NCC(N)=O` [Example 79, 3-[4-[[[(1-OXO-2(S)-AMINO-3(R)- METHYL-3-(4-HYDROXYPHENYL)]- PROPYL]AMINO]BUTOXY]- NAPHTHALENE-2-(N-ACETAMIDO)- CARBOXAMIDE] here?
A: 6 µM

Q: With `NC(=O)CNC(=O)c1cc2ccccc2cc1OCCCCNC(=O)[C@@H](N)c1ccccc1` [Example 37, 3-[[4-[(2(S)-AMINO-2-PHENYL-1- OXO)ETHYL]AMINO]BUTOXY]- NAPHTHALENE-2-(N- ACETAMIDO)CARBOXAMIDE] as the compound, how does the IC50 read?
A: 3.3 µM

Q: For `NCC(=O)NCCCCOc1cc2ccccc2cc1C(=O)NCC(N)=O` [Example 64, 3-[4-[[(1-OXO-2-AMINO)ETHYL]- AMINO]BUTOXY]-NAPHTHALENE-2- (N-ACETAMIDO)CARBOXAMIDE], which IC50 is on record?
A: 68 µM

Q: Which IC50 does the source give for `NC(=O)CNC(=O)c1cc2ccccc2cc1OCCCCNC(=O)[C@@H](N)Cc1csc2ccccc12` [Example 51, 3-[[4-[[2(S)-AMINO-3-(BENZO- THIOPHEN-3-YL)-1-OXO]PROPYL]- AMINO]BUTOXY]-NAPHTHALENE-2- (N-ACETAMIDO)CARBOXAMIDE] here?
A: 0.1 µM

Q: For `CC(NC(=O)c1cc2ccccc2cc1OCCCCNC(=O)[C@@H](N)Cc1ccc(O)cc1)C(N)=O` (stereo partly drawn) [Example 9, 3-[4-[[2(S)-AMINO-3-(4-HYDROXY- PHENYL)-1-OXOPROPYL]AMINO]- BUTOXY]-NAPHTHALENE-2-N-[(1- AMIDO)ETHYL]CARBOXAMIDE], which IC50 is on record?
A: 25 µM

Q: `NC(=O)CNC(=O)c1cc2ccccc2cc1OCCCCN1CCC[C@@H](c2ccccc2)[C@H](N)C1=O` [Example 76, 3-[4-[(2-OXO-3(R)-AMINO-4(S)- PHENYL)HEXAMETHYLENEIMIN-1- YL]BUTOXY]-NAPHTHALENE-2-(N- ACETAMIDO)CARBOXAMIDE] was tested. Which IC50 did it give?
A: 6 µM

Q: Which IC50 does the source give for `NC(=O)CNC(=O)c1cc2ccccc2cc1OCc1ccc(N)cc1` [Example 119, 2-[4-AMINOBENZYLOXY]- NAPHTHALENE-3-[N-ACETAMIDO]- CARBOXAMIDE] here?
A: 25 µM

Q: Which IC50 does the source give for `COc1ccc2cc(OCCCCNC(=O)[C@@H](N)Cc3ccc(O)cc3)c(C(=O)NCC(N)=O)cc2c1` [Example 106, 3-[[4-[[2(S)-AMINO-3-(4-HYDROXY- PHENYL)-1-OXOPROPYL]AMINO]- BUTOXY]-7-METHOXY- NAPHTHALENE-2-[N-ACETAMIDO]- CARBOXAMIDE] here?
A: 2.5 µM

Q: For `NC(=O)CNC(=O)c1cc2ccccc2cc1OCc1cccc(NC(=O)[C@@H](N)Cc2ccc(O)cc2)c1` [Example 96, 3-[3-[[[1-OXO-2(S)-AMINO-3-(4- HYDROXYPHENYL)]PROPYL]AMINO]- BENZYLOXY]NAPHTHALENE-2-(N- ACETAMIDO)CARBOXAMIDE], which IC50 is on record?
A: 7.1 µM

Q: With `N#C/C(=C\c1ccc(O)cc1)C(=O)NCCCCOc1cc2ccccc2cc1C(=O)NCC(N)=O` [Example 149, 3-[[4-[N-[1-OXO-2-(CYANO)-3-(4- HYDROXYPHENYL)]PROPEN-2-YL]- AMINO] BUTOXY]-NAPHTHALENE-2- [N-ACETAMIDO]CARBOXAMIDE] as the compound, how does the IC50 read?
A: 27 µM

Q: For `C[C@H](N)C(=O)NCCCCOc1cc2ccccc2cc1C(=O)NCC(N)=O` [Example 65, 3-[4-[[(1-OXO-2(S)-AMINO)PROPYL]- AMINO]BUTOXY]-NAPHTHALENE-2- (N-ACETAMIDO)CARBOXAMIDE], which IC50 is on record?
A: 101 µM

Q: `NC(=O)CNC(=O)c1cc2ccccc2cc1OCCCCCNC(=O)[C@@H](N)Cc1ccc(O)cc1` [Example 94, 3-[5-[[[1-OXO-2(S)-AMINO-3-(4- HYDROXYPHENYL)]PROPYL]AMINO]- PENTOXY]NAPHTHALENE-2-(N- ACETAMIDO)CARBOXAMIDE] was tested. Which IC50 did it give?
A: 6.6 µM

Q: With `Cc1nc(-c2ccc(CC(N)C(=O)NCCCCOc3cc4ccccc4cc3C(=O)NCC(N)=O)cc2)no1` (stereo in doubt) [Compound 135, (2S)-2-amino-N-(4-{3-[N-(carbamoylmethyl)carbamoyl](2-naphtyloxy)}butyl)-3-[4-(5-methyl(1,2,4-oxadizol-3-yl))phenyl]propanamide] as the compound, how does the IC50 read?
A: 29 µM

Q: Which IC50 does the source give for `NC(=O)C(Cc1ccccc1)NC(=O)c1cc2ccccc2cc1OCCCCNC(=O)[C@@H](N)Cc1ccc(O)cc1` (stereo partly drawn) [Example 10, 3-[4-[[2(S)-AMINO-3-(4-HYDROXY- PHENYL)-1-OXOPROPYL]AMINO]- BUTOXY]-NAPHTHALENE-2-[N- [(AMIDO)(BENZYL)METHYL]]- CARBOXAMIDE] here?
A: ≥ 500 µM

Q: How did the IC50 turn out when `NC(=O)CNC(=O)c1cc2ccccc2cc1OCCCCN1CCNC(Cc2ccccc2)C1=O` (stereo in doubt) [Example 28, 3-[4-[(2-OXO-3(S)-BENZYL)-PIPERAZIN- 1-YL]BUTOXY]-NAPHTHALENE-2-(N- ACETAMIDO)CARBOXAMIDE] was run?
A: 27 µM

Q: With `NC(=O)CNC(=O)c1cc2ccccc2cc1OCCCCNC(=O)[C@@H](N)Cc1ccc(O)c([N+](=O)[O-])c1` [Example 54, 3-[4-[[[2(S)-AMINO-3-(3-NITRO-4- HYDROXY)PHENYL-1-OXO]PROPYL]- AMINO]BUTOXY]-NAPHTHALENE-2- (N-ACETAMIDO)CARBOXAMIDE] as the compound, how does the IC50 read?
A: 0.66 µM

Q: With `NC(=O)CNC(=O)c1cc2ccccc2cc1OCCCCNC(=O)[C@@H](N)Cc1cccs1` [Example 55, 3-[4-[[[2(S)-AMINO-3-(THIOPHEN-2-YL)- 1-OXO]PROPYL]AMINO]BUTOXY]- NAPHTHALENE-2-(N-ACETAMIDO)- CARBOXAMIDE] as the compound, how does the IC50 read?
A: 1.35 µM

Q: How did the IC50 turn out when `CN(CCCCOc1cc2ccccc2cc1C(=O)NCC(N)=O)C(=O)C(N)Cc1csc2ccccc12` (stereo not shown) [Example 153, 3-[[[4-[3-(BENZOTHIOPHEN-3-YL)-2- AMINO-1-OXO]PROPYL](N-METHYL)- AMINO]BUTOXY]-NAPHTHALENE-2- (N-ACETAMIDO)CARBOXAMIDE] was run?
A: 0.33 µM

Q: `NC(=O)CNC(=O)c1cc2ccccc2cc1OCCCCNC(=O)CNCc1cccc2ccccc12` [Example 71] was tested. Which IC50 did it give?
A: 6 µM
